The values that follow come from ChEMBL document CHEMBL3351298, “Design, synthesis and evaluation of novel tacrine-(β-carboline) hybrids as multifunctional agents for the treatment of Alzheimer's disease” (Bioorg Med Chem, 2014).

One data set can be described thus: in vitro. Conditions: PAMPA. In general terms: The PAMPA barrier holds no transporters, so it reflects passive diffusion.
Data set [1] deals with Amyloid-beta precursor protein (Homo sapiens) (UniProt P05067). As to the kind of experiment: Inhibition of amyloid beta (1 to 42) (unknown origin) self-induced aggregation at 20 uM after 46 to 48 hrs by thioflavin-T based fluorometric assay.
Data set [2] deals with Acetylcholinesterase (Electrophorus electricus, UniProt O42275).
Description: Inhibition of electric eel AChE using acetylthiocholine iodide as substrate incubated for 6 mins by spectrophotometric method
Another data set has as its target Cholinesterase (Equus caballus, UniProt P81908).
Data set [3] is described as follows: Retention time of the compound using CH3OH/H2O (0.1% Formic acid), 60% (v/v) of CH3OH gradient by HPLC analysis. Format: physicochemical.
For data set [4], the target named is Acetylcholinesterase (Homo sapiens, UniProt P22303).
Description: Inhibition of human AChE using acetylthiocholine iodide as substrate incubated for 6 mins by spectrophotometric method
Data set [5] in a line: Retention time of the compound using CH3OH/H2O(0.1% Formic acid), 75% (v/v) of CH3OH gradient by HPLC analysis. In kind it is physicochemical.
A short description of data set [6]: Retention time of the compound using CH3OH/H2O(0.1% Formic acid), 70% (v/v) of CH3OH gradient by HPLC analysis. Format: physicochemical.
Data set [7] in a line: Retention time of the compound using CH3OH/H2O (0.1% Formic acid), 65% (v/v) of CH3OH gradient by HPLC analysis. In kind it is physicochemical.
Data set [8] is described as follows: Metal chelating activity of the compound assessed as Cu2+ complex formation at 25 uM by UV-vis spectrometry. In kind it is physicochemical.
Another data set relates to PC-12. Kind of data set: Neuroprotective activity against H2O2-induced oxidative damage in rat PC12 cells assessed as increase in cell viability at 0.4 to 10 uM after 24 hrs by MTT assay. Format: functional, cell-based. For orientation: Tetrazolium dyes change colour on reduction, which living cells bring about.
A short description of data set [9]: Neuroprotective activity against H2O2-induced oxidative damage in rat PC12 cells assessed as increase in cell viability at 10 uM after 24 hrs by MTT assay. In kind it is functional, PC-12.
The nature of data set [10]: Retention time of the compound using CH3OH/H2O(0.1% Formic acid), 45% (v/v) of CH3OH gradient by HPLC analysis. In kind it is physicochemical.
The target of data set [11] is Acetylcholinesterase (Electrophorus electricus) (UniProt O42275). As to the kind of experiment: Mixed-type of inhibition in electric eel AChE by Lineweaver-Burk plot analysis.
Data set [12] is described as follows: Retention time of the compound using CH3OH/H2O(0.1% Formic acid), 55% (v/v) of CH3OH gradient by HPLC analysis. In kind it is physicochemical.

Active and inactive are the calls of the source. The rule behind the calls is not given here.

Chain of Amyloid-beta precursor protein (Homo sapiens) (P05067 whole entry): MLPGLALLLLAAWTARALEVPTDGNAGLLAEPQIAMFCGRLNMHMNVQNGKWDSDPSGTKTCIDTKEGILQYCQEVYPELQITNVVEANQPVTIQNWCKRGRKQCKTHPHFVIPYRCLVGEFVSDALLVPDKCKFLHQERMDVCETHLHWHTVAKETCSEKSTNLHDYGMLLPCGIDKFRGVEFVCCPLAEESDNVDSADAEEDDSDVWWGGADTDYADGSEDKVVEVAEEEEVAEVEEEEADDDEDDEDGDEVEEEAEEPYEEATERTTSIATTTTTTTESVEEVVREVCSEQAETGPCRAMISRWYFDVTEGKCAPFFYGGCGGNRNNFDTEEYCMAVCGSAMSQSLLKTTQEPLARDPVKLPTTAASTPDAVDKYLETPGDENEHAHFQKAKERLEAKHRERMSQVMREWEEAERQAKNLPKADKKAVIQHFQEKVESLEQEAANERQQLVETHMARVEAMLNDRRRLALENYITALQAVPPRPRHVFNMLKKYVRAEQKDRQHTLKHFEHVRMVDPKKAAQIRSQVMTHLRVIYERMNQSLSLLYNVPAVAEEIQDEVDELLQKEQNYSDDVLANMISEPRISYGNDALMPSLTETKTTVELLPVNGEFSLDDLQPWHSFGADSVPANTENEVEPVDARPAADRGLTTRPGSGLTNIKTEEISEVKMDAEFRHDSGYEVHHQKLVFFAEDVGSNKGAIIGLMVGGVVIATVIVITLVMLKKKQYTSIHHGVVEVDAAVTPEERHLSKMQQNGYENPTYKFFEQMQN
Chain of Cholinesterase (P81908 whole entry): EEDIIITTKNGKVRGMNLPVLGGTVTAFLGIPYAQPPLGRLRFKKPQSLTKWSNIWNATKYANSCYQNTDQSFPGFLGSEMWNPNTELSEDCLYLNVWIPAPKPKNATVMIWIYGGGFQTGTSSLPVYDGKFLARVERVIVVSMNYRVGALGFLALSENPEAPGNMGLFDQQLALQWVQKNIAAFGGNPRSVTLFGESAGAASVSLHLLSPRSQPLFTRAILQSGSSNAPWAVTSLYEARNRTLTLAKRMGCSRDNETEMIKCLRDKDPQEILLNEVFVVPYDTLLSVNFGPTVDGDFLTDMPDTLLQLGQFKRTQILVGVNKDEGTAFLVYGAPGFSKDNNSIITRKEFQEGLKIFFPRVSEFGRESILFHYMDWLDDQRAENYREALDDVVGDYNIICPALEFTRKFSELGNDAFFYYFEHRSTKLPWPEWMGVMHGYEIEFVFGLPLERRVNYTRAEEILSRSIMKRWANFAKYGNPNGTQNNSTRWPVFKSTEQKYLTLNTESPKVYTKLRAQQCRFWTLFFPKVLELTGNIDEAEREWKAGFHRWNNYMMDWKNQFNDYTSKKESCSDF
Chain of Acetylcholinesterase (Homo sapiens, UniProt P22303) (P22303 whole entry): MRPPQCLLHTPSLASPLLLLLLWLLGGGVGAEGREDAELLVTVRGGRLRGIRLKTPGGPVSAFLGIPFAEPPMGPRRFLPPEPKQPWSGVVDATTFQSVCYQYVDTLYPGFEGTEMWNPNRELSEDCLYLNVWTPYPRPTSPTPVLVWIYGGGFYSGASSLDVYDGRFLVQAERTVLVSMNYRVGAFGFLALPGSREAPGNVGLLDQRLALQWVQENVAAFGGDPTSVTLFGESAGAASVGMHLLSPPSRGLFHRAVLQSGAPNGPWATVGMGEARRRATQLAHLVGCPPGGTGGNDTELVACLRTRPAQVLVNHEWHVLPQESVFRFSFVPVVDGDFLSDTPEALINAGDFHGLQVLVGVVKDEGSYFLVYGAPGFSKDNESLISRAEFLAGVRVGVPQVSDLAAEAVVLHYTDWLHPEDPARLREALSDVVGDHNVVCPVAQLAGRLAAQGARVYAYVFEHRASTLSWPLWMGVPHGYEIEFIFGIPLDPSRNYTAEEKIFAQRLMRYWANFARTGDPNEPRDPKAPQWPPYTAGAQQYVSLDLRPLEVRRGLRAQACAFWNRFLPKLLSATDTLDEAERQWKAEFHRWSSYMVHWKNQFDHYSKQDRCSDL
Chain of Acetylcholinesterase (Electrophorus electricus, UniProt O42275) (O42275 whole entry): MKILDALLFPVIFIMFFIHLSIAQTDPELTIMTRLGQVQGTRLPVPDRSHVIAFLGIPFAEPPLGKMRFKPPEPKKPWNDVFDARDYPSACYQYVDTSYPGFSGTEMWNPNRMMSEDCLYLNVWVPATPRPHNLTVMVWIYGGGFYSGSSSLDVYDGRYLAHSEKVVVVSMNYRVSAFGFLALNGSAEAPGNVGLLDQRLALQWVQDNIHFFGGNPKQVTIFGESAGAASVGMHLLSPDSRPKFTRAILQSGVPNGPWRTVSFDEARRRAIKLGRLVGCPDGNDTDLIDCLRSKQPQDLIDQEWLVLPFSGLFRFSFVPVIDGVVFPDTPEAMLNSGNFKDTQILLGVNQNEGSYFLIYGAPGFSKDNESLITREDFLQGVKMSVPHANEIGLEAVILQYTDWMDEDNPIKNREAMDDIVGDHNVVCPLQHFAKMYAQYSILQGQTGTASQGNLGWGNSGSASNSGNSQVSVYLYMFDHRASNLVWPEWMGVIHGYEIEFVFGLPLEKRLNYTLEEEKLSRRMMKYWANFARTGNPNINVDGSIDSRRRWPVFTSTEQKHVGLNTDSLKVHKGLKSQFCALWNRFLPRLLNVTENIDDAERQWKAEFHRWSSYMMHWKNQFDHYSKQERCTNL
Chain of Acetylcholinesterase (Electrophorus electricus) (O42275 24-633 limits assumed): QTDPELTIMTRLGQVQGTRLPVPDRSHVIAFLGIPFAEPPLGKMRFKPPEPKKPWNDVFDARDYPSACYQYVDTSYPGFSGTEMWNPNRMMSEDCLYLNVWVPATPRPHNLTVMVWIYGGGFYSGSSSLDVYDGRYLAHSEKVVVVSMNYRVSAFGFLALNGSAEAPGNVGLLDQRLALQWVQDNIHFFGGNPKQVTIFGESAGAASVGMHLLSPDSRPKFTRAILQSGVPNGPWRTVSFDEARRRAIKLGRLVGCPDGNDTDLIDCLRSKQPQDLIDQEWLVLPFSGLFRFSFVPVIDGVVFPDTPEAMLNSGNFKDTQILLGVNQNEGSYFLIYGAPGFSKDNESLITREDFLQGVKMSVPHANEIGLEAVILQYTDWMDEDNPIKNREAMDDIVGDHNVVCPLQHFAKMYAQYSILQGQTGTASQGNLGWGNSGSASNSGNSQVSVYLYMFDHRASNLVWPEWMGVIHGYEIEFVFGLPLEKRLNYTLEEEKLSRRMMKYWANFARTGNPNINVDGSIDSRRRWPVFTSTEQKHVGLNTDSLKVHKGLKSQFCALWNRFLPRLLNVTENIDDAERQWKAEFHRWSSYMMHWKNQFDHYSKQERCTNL

The term Papp denotes the rate of passage across a membrane or cell layer, normalised by area and donor concentration. A low value points to poor permeation. As for `CC(=O)[C@H]1CC[C@H]2[C@@H]3CCC4=CC(=O)CC[C@]4(C)[C@H]3CC[C@]12C` [PROGESTERONE], the Papp in “in vitro” was found to be 4.14 ×10⁻⁶ cm/s.
As usually defined, the inhibition is how much of the control response was suppressed. Broadly, the IC50 is the concentration that gives 50% inhibition. Compound `COC(=O)c1cc2c(cn1)[nH]c1ccccc12` [BETA-CCM] displayed an inhibition in [1] of 22.1%. The IC50 against Acetylcholinesterase [2] was 63000 nM; at Cholinesterase, more than 100000 nM.
`CC(=O)N[C@@H](Cc1c[nH]c2ccccc12)C(=O)NCCCCCCNc1c2c(nc3ccccc13)CCCC2`: the inhibition in data set [1] stood at 61.4%. In data set [3], this compound registered a Retention_time of 4.642 min. Further, the IC50 against Acetylcholinesterase [2] was determined as 115 nM; against Cholinesterase it was 6.2 nM; at Acetylcholinesterase [4], 153 nM.
As for `Clc1cccc(Cl)c1N=C1NCCN1` [CLONIDINE], in the data set “in vitro”, the apparent permeability coefficient (Papp) came to 3.8 ×10⁻⁶ cm/s.
Turning to `CC1N[C@H](C(=O)NCCCCCCNc2c3c(nc4ccccc24)CCCC3)Cc2c1[nH]c1ccccc21` (stereo not given in full), the inhibition in data set [1] was determined as 48.6%. The concentration for half-maximal inhibition (IC50) on Acetylcholinesterase [2] is 156 nM; on Cholinesterase it was 240 nM; at Acetylcholinesterase [4], 203 nM.
In data set [1], `COc1ccc(-c2nc(C(=O)NCCCCCCNc3c4c(nc5ccccc35)CCCC4)cc3c2[nH]c2ccccc23)cc1` showed an inhibition of 25.2%. This compound registered a Retention_time in data set [5] of 5.664 min. Further, the values for the half-inhibitory concentration (IC50) against Acetylcholinesterase [2], at Cholinesterase and against Acetylcholinesterase [4] were 97.7 nM, 329 nM and 149 nM, respectively.
In turn, `Cc1nc(C(=O)NCCCCCCCCNc2c3c(nc4ccccc24)CCCC3)cc2c1[nH]c1ccccc12` registered an inhibition in [1] of 36.6%. In data set [6], this compound yielded a Retention_time of 7.963 min. The values for the IC50 against Acetylcholinesterase [2], against Cholinesterase and at Acetylcholinesterase [4] were 107 nM, 245 nM and 153 nM, respectively.
In data set [1], `O=C(NCCCCCCNc1c2c(nc3ccccc13)CCCC2)c1cc2c(cn1)[nH]c1ccccc12` yielded an inhibition of 41.2%. In data set [3], this compound returned a Retention_time of 15.899 min. Moreover, the values for the half-inhibitory concentration (IC50) on Acetylcholinesterase [2], against Cholinesterase and at Acetylcholinesterase [4] were 32.4 nM, 41.3 nM and 91.8 nM, respectively. In “in vitro”, this compound had an apparent permeability coefficient (Papp) of 5.36 ×10⁻⁶ cm/s.
For `O=C(NCCCCCCNc1c2c(nc3ccccc13)CCCC2)c1cc2c([nH]c3ccccc32)c(-c2ccccc2)n1`, the inhibition in data set [1] amounted to 26.1%. Further, the Retention_time in data set [7] was 23.485 min. For the same compound, the half-inhibitory concentration (IC50) on Acetylcholinesterase [2] was 127 nM; against Cholinesterase, 129 nM; on Acetylcholinesterase [4], 159 nM.
Turning to `O=C(NCCCCCCNc1c2c(nc3ccccc13)CCCC2)c1cc2c([nH]c3ccccc32)c(-c2ccc(F)cc2)n1`, the inhibition in [1] amounted to 29.7%. Further, the Retention_time in data set [5] came out at 5.973 min. Moreover, the IC50 was found to be 230 nM at Acetylcholinesterase [2], 205 nM on Cholinesterase and 306 nM against Acetylcholinesterase [4].
The compound `CC(C)(C)OC(=O)N1Cc2[nH]c3ccccc3c2C[C@H]1C(=O)NCCCCCCNc1c2c(nc3ccccc13)CCCC2` came in with an inhibition in [1] of 52.4%. In addition, the Retention_time in data set [3] is 17.683 min. In addition, the IC50 at Acetylcholinesterase [2] was found to be 141 nM; at Cholinesterase, 7.5 nM; at Acetylcholinesterase [4], 187 nM. Moreover, the apparent permeability coefficient (Papp) in the data set “in vitro” amounted to 5.81 ×10⁻⁶ cm/s.
`CC(C)(C)OC(=O)N[C@@H](Cc1c[nH]c2ccccc12)C(=O)NCCCCCCNc1c2c(nc3ccccc13)CCCC2` had an inhibition in [1] of 62.1%. Also, in data set [6], the Retention_time was found to be 4.417 min. The 50% inhibitory concentration (IC50) against Acetylcholinesterase [2] stood at 67.3 nM; against Cholinesterase, 4.3 nM; at Acetylcholinesterase [4], 116 nM. Also, the Papp in the data set “in vitro” stood at 5.52 ×10⁻⁶ cm/s.
As for `Cc1nc(C(=O)NCCCCCCCCCCNc2c3c(nc4ccccc24)CCCC3)cc2c1[nH]c1ccccc12`, in data set [1], the inhibition was determined as 38.8%. Also, the Retention_time in data set [5] came to 7.918 min. The half-inhibitory concentration (IC50) was 783 nM on Acetylcholinesterase [2] and 364 nM on Cholinesterase.
As to `CCc1nc(C(=O)NCCCCCCNc2c3c(nc4ccccc24)CCCC3)cc2c1[nH]c1ccccc12`, in [1], the inhibition was 44.6%. In data set [7], the Retention_time is given as 10.991 min. The values for the IC50 against Acetylcholinesterase [2], on Cholinesterase and on Acetylcholinesterase [4] were 51.7 nM, 96.9 nM and 98.2 nM, respectively. Besides, in the data set “in vitro”, the Papp was found to be 4.97 ×10⁻⁶ cm/s.
Take `NCCc1ccc(O)c(O)c1` [DOPAMINE]: the apparent permeability coefficient (Papp) in “in vitro” worked out at 0.15 ×10⁻⁶ cm/s.
Regarding `Cc1nc(C(=O)NCCCCCCNc2c3c(nc4ccccc24)CCCC3)cc2c1[nH]c1ccccc12`, the inhibition in data set [1] was found to be 41.5%. The Retention_time in data set [3] is listed as 13.685 min. The IC50 was found to be 40.6 nM on Acetylcholinesterase [2], 93.6 nM against Cholinesterase and 92.6 nM against Acetylcholinesterase [4].
In data set [1], `O=C(NCCCCCCNc1c2c(nc3ccccc13)CCCC2)[C@@H]1Cc2c([nH]c3ccccc23)CN1` had an inhibition of 65.8%. For the same compound, the Activity result was “Active” in data set [8] and 73.67% in data set [9]. The outcome in the data set on PC-12 was Active. Moreover, the Retention_time in data set [10] was found to be 7.932 min. Besides, the inhibition entry in [11] is “Active”. Also, the figures for the IC50 on Acetylcholinesterase [2], against Cholinesterase and on Acetylcholinesterase [4] were 21.6 nM, 39.8 nM and 63.2 nM, respectively. The compound also gave a Papp in the data set “in vitro” of 5.6 ×10⁻⁶ cm/s.
The compound `Cc1nc(C(=O)NCCNc2c3c(nc4ccccc24)CCCC3)cc2c1[nH]c1ccccc12` showed an inhibition in data set [1] of 42.4%. The Retention_time in data set [12] was 10.74 min. Moreover, the IC50 came to 485 nM at Acetylcholinesterase [2] and 539 nM on Cholinesterase.
In the case of `CN1C(C(=O)Nc2ccccn2)=C(O)c2ccccc2S1(=O)=O` [PIROXICAM], in “in vitro”, the apparent permeability (Papp) stood at 1.2 ×10⁻⁶ cm/s.
Take `Cc1nc(C(=O)NCCCCNc2c3c(nc4ccccc24)CCCC3)cc2c1[nH]c1ccccc12`: in [1], the inhibition was 39.3%. For the same compound, the Retention_time in data set [12] was found to be 10.988 min. Also, the IC50 against Acetylcholinesterase [2] came out at 268 nM; against Cholinesterase, 158 nM; against Acetylcholinesterase [4] it was 325 nM.
As to `CC1c2[nH]c3ccccc3c2C[C@@H](C(=O)NCCCCCCNc2c3c(nc4ccccc24)CCCC3)N1C(=O)OC(C)(C)C` (stereo not given in full), the inhibition in data set [1] was determined as 42.3%. The Retention_time in [6] came out at 8.219 min. The IC50 at Acetylcholinesterase [2] was found to be 389 nM; at Cholinesterase it was 22.3 nM; against Acetylcholinesterase [4], 526 nM.
In the case of `N[C@@H](Cc1c[nH]c2ccccc12)C(=O)NCCCCCCNc1c2c(nc3ccccc13)CCCC2`, the inhibition in [1] was 66.3%. Besides, in the data set on PC-12, the outcome was Active. Moreover, the Retention_time in data set [10] was 5.426 min. The concentration for half-maximal inhibition (IC50) against Acetylcholinesterase [2] came to 51.6 nM; on Cholinesterase, 10.6 nM; on Acetylcholinesterase [4] it was 96.3 nM. In “in vitro”, this compound displayed an apparent permeability coefficient (Papp) of 4.45 ×10⁻⁶ cm/s.
